Measurements as given in ChEMBL document CHEMBL3885881, “DrugMatrix”.

Species on record: Rattus norvegicus
Assay: DrugMatrix - Regimen: Daily Repeat
Format: toxicity, organism-based, Sprague-Dawley
Set-up: regimen Daily Repeat, gender Male, age 6-8 weeks
Settings: in vivo, po, route oral GAVAGE, vehicle 100 % SALINE; for ABSOLUTE BASOPHIL / ABSOLUTE EOSINOPHIL / ABSOLUTE LYMPHOCYTE / ABSOLUTE MONOCYTE / ABSOLUTE SEGMENTED NEUTROPHIL / BASOPHIL / EOSINOPHIL / ERYTHROCYTE COUNT / HEMATOCRIT / HEMOGLOBIN / LEUKOCYTE COUNT / MEAN CORPUSCULAR HEMOGLOBIN / MEAN CORPUSCULAR HEMOGLOBIN CONCENTRATION / MEAN CORPUSCULAR VOLUME / MONOCYTE / NEUTROPHIL / NUCLEATED RED BLOOD CELLS / PLATELET COUNT: tissue Blood; for ALANINE AMINOTRANSFERASE / ALBUMIN / ALKALINE PHOSPHATASE / ASPARTATE AMINOTRANSFERASE / BLOOD UREA NITROGEN / CARBON DIOXIDE / CHLORIDE / CHOLESTEROL / CREATINE PHOSPHOKINASE / CREATININE / GLUCOSE / LACTATE DEHYDROGENASE / LIPASE / PHOSPHORUS / POTASSIUM / SODIUM / TOTAL BILIRUBIN / TOTAL PROTEIN / URIC ACID: tissue Plasma
[1] = 40 mg/kg, 120 h, dose level Low, time 5 day
[2] = 195 mg/kg, 72 h, dose level High, time 3 day
[3] = 195 mg/kg, 120 h, dose level High, time 5 day

`Oc1ccccc1O` [CATECHOL] was tested, and the “ABSOLUTE BASOPHIL” value [1] was 0 CELLS/uL, the “ABSOLUTE EOSINOPHIL” value [1] was 30.67 CELLS/uL and the “ABSOLUTE LYMPHOCYTE” value [1] was 8416.67 CELLS/uL. For the same compound, the “ABSOLUTE MONOCYTE” value [1] was 0 CELLS/uL, the “ABSOLUTE SEGMENTED NEUTROPHIL” value [1] was 952.67 CELLS/uL and the BASOPHIL [1] was 0%. The EOSINOPHIL [1] was 0.33%, the “ERYTHROCYTE COUNT” value [1] was 5.53 x10E6/uL and the HEMATOCRIT [1] was 33.83%. For the same compound, the HEMOGLOBIN [1] was 13.17 G/DL, the “LEUKOCYTE COUNT” value [1] was 9.4 x10E3/uL and the “MEAN CORPUSCULAR HEMOGLOBIN” value [1] was 23.8 pg. The “MEAN CORPUSCULAR HEMOGLOBIN CONCENTRATION” value [1] was 38.93 G/DL, the “MEAN CORPUSCULAR VOLUME” value [1] was 61.13 fL and the MONOCYTE [1] was 0%. The NEUTROPHIL [1] was 10.67%, the “NUCLEATED RED BLOOD CELLS” value [1] was 0 /100WBC and the “PLATELET COUNT” value [1] was 1168.67 x10E3/uL. The “ALANINE AMINOTRANSFERASE” value [1] was 60.67 u/L, the ALBUMIN [1] was 4.17 G/DL and the “ALKALINE PHOSPHATASE” value [1] was 318.33 u/L. The “ASPARTATE AMINOTRANSFERASE” value [1] was 89.67 u/L, the “BLOOD UREA NITROGEN” value [1] was 16 mg/dL and the “CARBON DIOXIDE” value [1] was 26 mmol/L. The CHLORIDE [1] was 104.67 MEQ/L, the CHOLESTEROL [1] was 77.67 mg/dL and the “CREATINE PHOSPHOKINASE” value [1] was 225.33 u/L. For the same compound, the CREATININE [1] was 0.14 mg/dL, the GLUCOSE [1] was 162 mg/dL and the “LACTATE DEHYDROGENASE” value [1] was 134.67 u/L. For the same compound, the LIPASE [1] was 9 u/L, the PHOSPHORUS [1] was 10.23 mg/dL and the POTASSIUM [1] was 5.58 MEQ/L. For the same compound, the SODIUM [1] was 152 MEQ/L, the “TOTAL BILIRUBIN” value [1] was 0.2 mg/dL and the “TOTAL PROTEIN” value [1] was 6.03 G/DL. The “URIC ACID” value [1] was 0.77 mg/dL, the “ABSOLUTE BASOPHIL” value [2] was 0 CELLS/uL and the “ABSOLUTE EOSINOPHIL” value [2] was 0 CELLS/uL. The “ABSOLUTE LYMPHOCYTE” value [2] was 16294.67 CELLS/uL, the “ABSOLUTE MONOCYTE” value [2] was 122.33 CELLS/uL and the “ABSOLUTE SEGMENTED NEUTROPHIL” value [2] was 1316.33 CELLS/uL. For the same compound, the BASOPHIL [2] was 0%, the EOSINOPHIL [2] was 0% and the “ERYTHROCYTE COUNT” value [2] was 5.5 x10E6/uL. For the same compound, the HEMATOCRIT [2] was 33.6%, the HEMOGLOBIN [2] was 13.2 G/DL and the “LEUKOCYTE COUNT” value [2] was 17.73 x10E3/uL. The “MEAN CORPUSCULAR HEMOGLOBIN” value [2] was 24 pg, the “MEAN CORPUSCULAR HEMOGLOBIN CONCENTRATION” value [2] was 39.27 G/DL and the “MEAN CORPUSCULAR VOLUME” value [2] was 61.13 fL. For the same compound, the MONOCYTE [2] was 0.67%, the NEUTROPHIL [2] was 7.33% and the “NUCLEATED RED BLOOD CELLS” value [2] was 0 /100WBC. The “PLATELET COUNT” value [2] was 1440 x10E3/uL, the “ALANINE AMINOTRANSFERASE” value [2] was 50.67 u/L and the ALBUMIN [2] was 4.1 G/DL. For the same compound, the “ALKALINE PHOSPHATASE” value [2] was 278.67 u/L, the “ASPARTATE AMINOTRANSFERASE” value [2] was 78 u/L and the “BLOOD UREA NITROGEN” value [2] was 12.33 mg/dL. For the same compound, the “CARBON DIOXIDE” value [2] was 25 mmol/L, the CHLORIDE [2] was 100.33 MEQ/L and the CHOLESTEROL [2] was 73 mg/dL. The “CREATINE PHOSPHOKINASE” value [2] was 460.33 u/L, the CREATININE [2] was 0.2 mg/dL and the GLUCOSE [2] was 161.33 mg/dL. The “LACTATE DEHYDROGENASE” value [2] was 133.67 u/L, the LIPASE [2] was 10.67 u/L and the PHOSPHORUS [2] was 11.7 mg/dL. For the same compound, the POTASSIUM [2] was 6.15 MEQ/L, the SODIUM [2] was 140.17 MEQ/L and the “TOTAL BILIRUBIN” value [2] was 0.17 mg/dL. For the same compound, the “TOTAL PROTEIN” value [2] was 5.9 G/DL, the “URIC ACID” value [2] was 1.73 mg/dL and the “ABSOLUTE BASOPHIL” value [3] was 0 CELLS/uL. The “ABSOLUTE EOSINOPHIL” value [3] was 0 CELLS/uL, the “ABSOLUTE LYMPHOCYTE” value [3] was 12717.67 CELLS/uL and the “ABSOLUTE MONOCYTE” value [3] was 34 CELLS/uL. The “ABSOLUTE SEGMENTED NEUTROPHIL” value [3] was 981.67 CELLS/uL, the BASOPHIL [3] was 0% and the EOSINOPHIL [3] was 0%. For the same compound, the “ERYTHROCYTE COUNT” value [3] was 5.35 x10E6/uL, the HEMATOCRIT [3] was 33.67% and the HEMOGLOBIN [3] was 13.33 G/DL. For the same compound, the “LEUKOCYTE COUNT” value [3] was 13.73 x10E3/uL, the “MEAN CORPUSCULAR HEMOGLOBIN” value [3] was 24.93 pg and the “MEAN CORPUSCULAR HEMOGLOBIN CONCENTRATION” value [3] was 39.6 G/DL. The “MEAN CORPUSCULAR VOLUME” value [3] was 62.9 fL, the MONOCYTE [3] was 0.33% and the NEUTROPHIL [3] was 7%. The “NUCLEATED RED BLOOD CELLS” value [3] was 0 /100WBC, the “PLATELET COUNT” value [3] was 1267.33 x10E3/uL and the “ALANINE AMINOTRANSFERASE” value [3] was 63.67 u/L. The ALBUMIN [3] was 4.47 G/DL, the “ALKALINE PHOSPHATASE” value [3] was 326 u/L and the “ASPARTATE AMINOTRANSFERASE” value [3] was 93 u/L. The “BLOOD UREA NITROGEN” value [3] was 15.33 mg/dL, the “CARBON DIOXIDE” value [3] was 27 mmol/L and the CHLORIDE [3] was 102.67 MEQ/L. For the same compound, the CHOLESTEROL [3] was 74.33 mg/dL, the “CREATINE PHOSPHOKINASE” value [3] was 321 u/L and the CREATININE [3] was 0.14 mg/dL. For the same compound, the GLUCOSE [3] was 145.33 mg/dL, the “LACTATE DEHYDROGENASE” value [3] was 130.67 u/L and the LIPASE [3] was 10 u/L. For the same compound, the PHOSPHORUS [3] was 10.1 mg/dL, the POTASSIUM [3] was 6.03 MEQ/L and the SODIUM [3] was 151 MEQ/L. The “TOTAL BILIRUBIN” value [3] was 0.2 mg/dL, the “TOTAL PROTEIN” value [3] was 6.43 G/DL and the “URIC ACID” value [3] was 0.73 mg/dL.
